Data from PMC7494652 (Bioorganic & medicinal chemistry letters, 2020).
Like-named read-outs stand apart in the source and are kept apart here.

What was measured:
[1] = Solubility in sodium phosphate buffer; format: physicochemical
[2] = target: T1, human sEH (Homo sapiens, UniProt P34913); test: Inhibition of human sEH, kinetic fluorescent assay
T1 sequence (P34913 1-555): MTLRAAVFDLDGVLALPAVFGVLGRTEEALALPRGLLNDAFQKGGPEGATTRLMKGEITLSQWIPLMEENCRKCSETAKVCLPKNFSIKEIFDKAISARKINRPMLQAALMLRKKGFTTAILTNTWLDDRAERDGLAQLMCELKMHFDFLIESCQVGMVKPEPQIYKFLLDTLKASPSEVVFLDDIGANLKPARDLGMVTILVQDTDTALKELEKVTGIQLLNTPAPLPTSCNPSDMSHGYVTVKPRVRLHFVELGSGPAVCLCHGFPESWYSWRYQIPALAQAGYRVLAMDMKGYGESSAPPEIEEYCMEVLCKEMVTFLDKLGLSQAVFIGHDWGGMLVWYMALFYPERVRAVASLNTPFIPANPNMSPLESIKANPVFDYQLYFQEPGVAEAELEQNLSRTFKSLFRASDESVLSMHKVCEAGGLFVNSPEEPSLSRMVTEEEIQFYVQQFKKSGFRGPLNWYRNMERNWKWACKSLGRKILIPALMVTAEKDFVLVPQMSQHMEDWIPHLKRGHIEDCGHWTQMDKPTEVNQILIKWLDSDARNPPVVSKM

[3] = cited from earlier work

Compound `CC1(C)[C@H]2CC[C@]1(C)C(NC(=O)Nc1ccccc1F)C2` (mixture of isomers) [(S)-2b] has a solubility ([1]; pH 7.4, aqueous buffer) of 225 ± 25 µM.

With `O=C(NC1CC2C=CC1C2)N[C@H]1CC[C@H](Oc2ccc(C(=O)O)cc2)CC1` (some centres unmarked) [1a] the “Fold more soluble than t-AUCB” value ([1]; sodium phosphate buffer) was 2 fold and the “Solubility compared with t-TUCB” value ([1]; sodium phosphate buffer) was “significantly more soluble”.

In the case of `O=C(NCCCCCCCCNC(=O)NCc1ccco1)NCc1ccco1` [5i], the IC50 [2] is reported as 214 nM.

In the case of `O=C(Nc1ccc(OC(F)(F)F)cc1)N[C@H]1CC[C@H](Oc2ccc(C(=O)O)cc2)CC1` [t-TUCB], the solubility [3] is listed as 5[19] μM.
